Values after ≈ are worked out from the molar mass of the structure shown.
Columns and labels:
[1] = test system: K. pneumoniae WACC 790; experiment: Resazurin reduction for the evaluation of metabolic activity (Example 2, FIG. 8); type: cell-based, Klebsiella pneumoniae
Procedure: (§1) Bacterial strains were maintained as suspensions in 20% (v/v) glycerol/Brain-Heart Infusion at −80° C.
Aerobic respiration was measured in the presence or absence of D-Lactic acid and the presence or absence of companion antibiotics either following incubation and visual recording of the MIC, or in a separate study. For evaluation after completion of MIC determination, the entire volume of the MIC well (100 μl) was mixed by pipetting up and down, then transferred to the equivalent well of a fluorescence-absorbance suitable 96-well plate. Alternatively, cultures were pipetted together as above and incubated overnight at 37° C. in the absence of any antimicrobial compounds. […] After incubation regimes were completed for both procedures, resazurin reduction was evaluated by adding 10 μl of a 0.02% resazurin solution to every well, and incubating the plates with gentle shaking (40 rpm) for a further 90 minutes at 37° C. […]
Following incubation, the 96-well trays were read on a fluorescence-absorbance spectrophotometer, using an excitation frequency of 565 nm and emission frequency of 590 nm. […]

[2] = test system: bioluminescent col^R E. coli Xen14; experiment: Murine peritoneal-sepsis model, CD1 male mice challenged IP (Example 6); type: in vivo, Escherichia coli; conditions: for survival of infected mice: up to 72 h post-infection, 8 mice per group, Sodium D-Lactate 1000 mg/kg single oral dose, colistin 1 mg/kg IP at 0, 4, 8 and 12 h
Procedure: Bioluminescent col^R E. coli Xen14 was streaked onto a 5% sheep blood agar plate containing 30 μg/ml kanamycin and incubated overnight (o/n) at 37° C. in normal air. The plate was first checked on a Lumina XRMS Ill machine to ensure bioluminescence, then a loopful of the o/n growth was suspended into 10 mL Luria Bertani (LB) broth to A600 nm=0.05. The suspension was incubated at 37° C. for approx. 3 h until A600 nm=0.5 (equivalent to approx. 5×10^8 CFU/mL). The bacterial suspension was centrifuged at 4,000×g for 5 min, resuspended and washed twice in phosphate buffered saline (PBS, pH 7.2) resuspended again in PBS and then placed on wet ice and used for mouse infection within 10 min of preparation as described below.
Outbred Swiss male (CD1) mice, 6-7 weeks (approx. 26-33 g, 8 mice per group) obtained from the Laboratory Animal Services breeding facility of The University of Adelaide, were used in these experiments. Mice had access to food and water ad libitum. The Animal Ethics Committee of The University of Adelaide (approval number S-2022-044) reviewed and approved all animal experiments. The study was conducted in compliance with the Australian Code of Practice for the Care and Use of Animals for Scientific Purposes (8th Edition 2013) and the South Australian Animal Welfare Act 1985.
Each mouse was challenged intraperitoneally (IP) with approx. 1×10^8 CFU of the bioluminescent col^R E. coli Xen14 in 200 μL PBS containing 3% porcine stomach mucin type Ill (Sigma Aldrich) and subjected to bioluminescence imaging in both ventral and dorsal positions on the IVIS Lumina XRMS Series Ill system while under anaesthesia. […]
Aliquots of blood samples (approx. 50 μL) were taken by submandibular (facial vein) bleeding from individual mice in all groups at 4 h for bacterial enumeration. […] In all experiments, signals were collected from a defined region of interest and total flux intensities (photons/s) analysed using Living Image Software 4.7.3. Survival rates for the groups were recorded. […]

[3] = test system: P. aeruginosa 001-11R; experiment: Minimum inhibitory concentration by broth microdilution (Example 2); type: cell-based, Pseudomonas aeruginosa
Procedure: Bacterial strains were maintained as suspensions in 20% (v/v) glycerol/Brain-Heart Infusion at −80° C. For use, a loop-full of ice was scraped from the stock and streaked for single colonies on rich media containing 1.8% agar (for Pseudomonas aeruginosa or Klebsiella pneumoniae, Luria-Bertani medium; for Staphylococcus aureus or Streptococcus pneumoniae, Trypticase Soy agar) and incubated overnight at 37° C.
A standard inoculum was prepared from broth culture. 1 to 3 colonies from an overnight agar culture plate were transferred to 5 ml of broth media and incubated at 37° C. with shaking (200 rpm) until turbidity was greater than that of a 0.5 McFarland Standard (overnight). The following broth media were used: Cation-adjusted Mueller-Hinton broth (caMHB—all strains); Roswell Park Memorial Institute medium (RPMI 1640, phenol red-free—S. aureus); Trypticase Soya Broth (TSB—S. aureus, S. pneumoniae); Todd Hewitt Broth (THB—S. pneumoniae), M63 minimal medium, supplemented with 0.2% glucose (M63—K. pneumoniae).
(§2) The broth culture was diluted in broth to a turbidity equal to a 0.5 McFarland Standard using a spectrophotometer at a wavelength of 620 nm. The 0.5 McFarland Standard was further diluted 1:100 in broth to create the standard inoculum. 50 μl of this standard inoculum was dispensed into every well in the microtitre tray, except the negative controls, where 50 μl of broth was dispensed instead.
(§3) Next, a working concentration at two times the highest target concentration for every antimicrobial was created in broth from stock solutions. 100 μl of this working concentration was pipetted into the first well, and 50 μl of broth media into all other wells. 50 μl of the first well was pipetted out and serially diluted across all wells in the row until the final concentration in the range achieved. 50 μl from the final well was removed and discarded. This produced a concentration range where each well was double the target concentration. All agents were performed in duplicate.
(§4) 96 well trays were incubated at 37° C. for 18±2 hours.

[4] = test system: S. aureus 29213; experiment: Minimum inhibitory concentration of metal salts by broth microdilution in Trypticase Soya broth (Example 4); type: cell-based, Staphylococcus aureus
Procedure: (§5) Bacterial strains were maintained as suspensions in 20% (v/v) glycerol/Brain-Heart Infusion at −80° C. For use, a loop-full of ice was scraped from the stock and streaked for single colonies on Trypticase Soya agar containing 1.8% agar and incubated overnight at 37° C.
(§6) A standard inoculum was prepared from broth culture. One to three colonies from an overnight agar culture plate were transferred to 5 ml of broth media and incubated at 37° C. with shaking (200 rpm) until turbidity was greater than that of a 0.5 McFarland Standard (overnight). All assays were performed in Trypticase Soya broth.
as §2
as §3, with “salt (in aqueous solution)” for “antimicrobial”
as §4

[5] = test system: S. aureus MRSA 510; experiment: as above; type: cell-based, Staphylococcus aureus
Procedure: as §5, §6, §2
as §3, with “salt (in aqueous solution)” for “antimicrobial”
as §4

[6] = test system: S. aureus MSSA 278; experiment: Minimum inhibitory concentration by broth microdilution (Example 2); type: cell-based, Staphylococcus aureus; conditions: unit assumed
Procedure: as §1
(§7) A standard inoculum was prepared from broth culture.
as §2, §3, §4

[7] = test system: S. aureus 510 (MRSA); experiment: as above; type: cell-based, Staphylococcus aureus; conditions: unit assumed
Procedure: as §1, §7, §2, §3, §4

[8] = test system: P. aeruginosa strain WACC91; experiment: Resazurin reduction of planktonic cultures in M63 (glucose), D- versus L-Lactic acid (Example 3); type: cell-based, Pseudomonas aeruginosa; conditions: resorufin fluorescence; compared to vehicle only treatment; M63 (glucose); 24 h
Procedure: . Viable cells reduce the blue resazurin dye to the pink, fluorescent resorufin form. Following incubation fluorescence was quantified by excitation wavelength of 540 nm and an emission wavelength of 590 nm using Enspire microplate reader.
P. aeruginosa strain WACC91 was maintained as a suspension in 20% (v/v) glycerol/Brain-Heart Infusion at −80° C. For use, a loop-full of ice was scraped from the stock and streaked for single colonies on LB media containing 1.8% agar and incubated overnight at 37° C. Isolated colonies were looped into 5 mL of LB broth and incubated at 37° C. with shaking until turbidity was greater than that of a 1.0 McFarland Standard (3-4 h).
The broth culture was diluted in M63 minimal media containing 0.2% (w/v) glucose as the sole carbon source to a turbidity equal to a 1.0 McFarland standard using a spectrophotometer at a wavelength of 595 nm. This culture was then diluted 1:100 in M63 (glucose) and 100 μL together with an additional 50 μL was transferred to each well of a 96 well microtitre tray and incubated overnight at 37° C., 5% CO2. D-Lactic acid, L-Lactic acid, or vehicle only (sterile H2O) was then applied by adding 50 μL of appropriate stock solutions diluted in M63 (glucose) and incubating for a further 24 hours at 37° C., 5% CO2. Culture metabolic activity was then determined using resazurin reduction as described above in Example 1.

[9] = test system: Pseudomonas aeruginosa clinical isolates from patients with cystic fibrosis; experiment: Resazurin staining of planktonic cultures, metabolic activity (Example 1); type: cell-based; conditions: resorufin fluorescence; 24 clinical isolates; 24 h D-Lactic acid treatment
Procedure: Clinical isolates of Pseudomonas aeruginosa collected from patients with cystic fibrosis were phenotyped and stored as 50% glycerol stocks at −70° C.±2° C. Clinical isolates were thawed and streaked out on blood agar plates to grow at 37° C., 5% CO2 for 12-24 hours, or until isolated colonies were large enough to sustain further culturing could be selected. Isolated colonies were looped into 5 mL of LB broth and incubated overnight at 37° C., 5% CO2 with gentle shaking to achieve stationary phase (B0).
B0 cultures were diluted 1:1000 in Pseudomonas minimal medium (herein referred to as PMM) to achieve approximately […], then 150 μL of each diluted culture was transferred to wells of a 96 well mitrotitre tray and incubated overnight at 37° C., 5% CO2. D-Lactic acid was then applied by adding 50 μL of appropriately stock solutions diluted in PMM (or vehicle-only in the case of control wells) and incubating for a further 24 hours at 37° C., 5% CO2. 20 μL culture supernatant was then transferred to wells containing 180 μL fresh PMM, culture density determined by measuring the absorbance at 595 nm (using a ThermoFisher Multiskan FC plate reader). […]
Viable cells reduce the blue resazurin dye to the pink, fluorescent resorufin form. Following incubation fluorescence was quantified by excitation wavelength of 540 nm and an emission wavelength of 590 nm using Enspire microplate reader. […]

[10] = antibiotic + 1 mM D-Lactic acid
[11] = antibiotic + 10 mM D-Lactic acid

Compound: colistin
- Relative metabolic activity, antibiotic plus D-Lactic acid versus antibiotic only ([1]; plus 10 mM D-Lactic acid): enhances metabolic activity suppression
- survival of infected mice [2]: three out eight
- MIC + 1 mM D-Lactic acid [3, 10]: 1.0
- MIC + 10 mM D-Lactic acid [3, 11]: 1.0
- MIC ([3]; antibiotic alone): 2.0

Compound: O=C(O)c1cn(C2CC2)c2cc(N3CCNCC3)c(F)cc2c1=O [Ciprofloxacin]
- Relative metabolic activity, antibiotic plus D-Lactic acid versus antibiotic only ([1]; plus 0.1 mM D-Lactic acid): enhances metabolic activity suppression

Compound: [Zn+2] [Zn^2+]
- MIC D-Lactate salt ([4]; metal ion as D-Lactate salt): 4 mM
- MIC (NO3)2 salt ([4]; metal ion as nitrate salt): 8 mM
- MIC D-Lactate salt ([5]; metal ion as D-Lactate salt): 4 mM
- MIC (NO3)2 salt ([5]; metal ion as nitrate salt): 8 mM

Compound: CO[C@H]1/C=C/O[C@@]2(C)Oc3c(C)c(O)c4c(O)c(c(/C=N/N5CCN(C)CC5)c(O)c4c3C2=O)NC(=O)/C(C)=C\C=C\[C@H](C)[C@H](O)[C@@H](C)[C@@H](O)[C@@H](C)[C@H](OC(C)=O)[C@@H]1C [rifampicin]
- MIC + 1 mM D-Lactic acid [6, 10]: 8 ng/mL
- MIC + 10 mM D-Lactic acid [6, 11]: 8 ng/mL
- MIC ([6]; antibiotic alone): 15 ng/mL (≈ 0.0182 µM)
- MIC + 1 mM D-Lactic acid [7, 10]: 8 ng/mL
- MIC + 10 mM D-Lactic acid [7, 11]: 8 ng/mL
- MIC ([7]; antibiotic alone): 60 ng/mL (≈ 0.0729 µM)

Compound: C[C@@H](O)C(=O)O [D-Lactic acid, (2R)-2-hydroxypropanoic acid]
- inhibition of metabolic activity [8]: > 50%
- inhibition of metabolic activity [9]: 90%

Compound: C[C@@H](O)C(=O)[O-].[Na+] [Sodium D-Lactate]
- treatment effectiveness (protection) ([2]; single oral dose of 1000 mg/kg): not protective
- survival of infected mice [2]: succumbed to infection by 12 h post-challenge
